Results published in PubChem BioAssay AID1963437 (Molecular Pharmacology Branch, DTP, NCI, 2024).
“And” between values parts separate entries of the source, which are not always exact repeats. Identical values can stand only once. Blank lines part the entries; values can stand above or below the compound they belong to.

Test system: OVCAR-8 complex spheroid, growth inhibition
Experiment: Anticancer human tumor OVCAR-8 cell line growth inhibition [Asc];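 note: spheroids exposed to agents for 7 days before readout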;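 for viability, T/C: percent viability relative to DMSO vehicle wells taken as 100%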
Conditions: for viability, T/C: stronger effect = lower value
Outline: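 Spheroid model: tumor line + HUVEC + hMSC. Single agents and combinations; top conc. at/near clinical Cmax (10 microM if undetermined), half-log dilutions. DMSO stocks at 800-fold test concentration.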

[1] = curve of first compound, second compound 0.0316 µM
[2] = curve of first compound, second compound 0.1 µM
[3] = curve of first compound, second compound 0.316 µM
[4] = curve of first compound, second compound 1 µM
[5] = curve of first compound, second compound 3.16 µM
[6] = curve of first compound, second compound 10 µM
[7] = second compound 0.0316 µM, first compound 0.00316 µM
[8] = second compound 0.0316 µM, first compound 0.01 µM
[9] = second compound 0.0316 µM, first compound 0.0316 µM
[10] = second compound 0.0316 µM, first compound 0.1 µM
[11] = second compound 0.1 µM, first compound 0.00316 µM
[12] = second compound 0.1 µM, first compound 0.01 µM
[13] = second compound 0.1 µM, first compound 0.0316 µM
[14] = second compound 0.1 µM, first compound 0.1 µM
[15] = second compound 0.316 µM, first compound 0.00316 µM
[16] = second compound 0.316 µM, first compound 0.01 µM
[17] = second compound 0.316 µM, first compound 0.0316 µM
[18] = second compound 0.316 µM, first compound 0.1 µM
[19] = second compound 1 µM, first compound 0.00316 µM
[20] = second compound 1 µM, first compound 0.01 µM
[21] = second compound 1 µM, first compound 0.0316 µM
[22] = second compound 1 µM, first compound 0.1 µM
[23] = second compound 3.16 µM, first compound 0.00316 µM
[24] = second compound 3.16 µM, first compound 0.01 µM
[25] = second compound 3.16 µM, first compound 0.0316 µM
[26] = second compound 3.16 µM, first compound 0.1 µM
[27] = second compound 10 µM, first compound 0.00316 µM
[28] = second compound 10 µM, first compound 0.01 µM
[29] = second compound 10 µM, first compound 0.0316 µM
[30] = second compound 10 µM, first compound 0.1 µM

IC50 [1]: > 1000 nM
IC50 [2]: > 1000 nM
IC50 [3]: > 1000 nM
IC50 [4]: > 1000 nM
IC50 [5]: > 1000 nM
IC50 [6]: > 1000 nM
SMILES: COc1c(OCCCN2CCOCC2)ccc2c3n(c(=NC(=O)c4cnc(N)nc4)nc12)CCN3 + Cc1c(S(C)(=O)=O)c(-c2cc(F)cc(N3CCN(c4ccc(NS(=O)(=O)c5ccc(NC(CCN6CCC(C(=O)OCCCP(=O)(O)O)CC6)CSc6ccccc6)c(S(=O)(=O)C(F)(F)F)c5)cc4)CC3)c2)c(-c2ccc(Cl)cc2)n1C(C)C
viability, T/C [7]: 114%
viability, T/C [8]: 104%
viability, T/C [9]: 128%
viability, T/C [10]: 150%
viability, T/C (second compound 0.0316 µM, first compound 0.316 µM): 149%
viability, T/C (second compound 0.0316 µM, first compound 1 µM): 82.2%
viability, T/C [11]: 100%
viability, T/C [12]: 107%
viability, T/C [13]: 142%
viability, T/C [14]: 161%
viability, T/C (second compound 0.1 µM, first compound 0.316 µM): 145%
viability, T/C (second compound 0.1 µM, first compound 1 µM): 85.9%
viability, T/C [15]: 91.6%
viability, T/C [16]: 121%
viability, T/C [17]: 154%
viability, T/C [18]: 146%
viability, T/C (second compound 0.316 µM, first compound 0.316 µM): 140%
viability, T/C (second compound 0.316 µM, first compound 1 µM): 85.8%
viability, T/C [19]: 114%
viability, T/C [20]: 119%
viability, T/C [21]: 167%
viability, T/C [22]: 181%
viability, T/C (second compound 1 µM, first compound 0.316 µM): 142%
viability, T/C (second compound 1 µM, first compound 1 µM): 82.8%
viability, T/C [23]: 144%
viability, T/C [24]: 98.8%
viability, T/C [25]: 136%
viability, T/C [26]: 170%
viability, T/C (second compound 3.16 µM, first compound 0.316 µM): 135%
viability, T/C (second compound 3.16 µM, first compound 1 µM): 64.2%
viability, T/C [27]: 131%
viability, T/C [28]: 141%
viability, T/C [29]: 146%
viability, T/C [30]: 189%
viability, T/C (second compound 10 µM, first compound 0.316 µM): 143%
viability, T/C (second compound 10 µM, first compound 1 µM): 76.2%

IC50 (curve of first compound, second compound 0.00949 µM): > 10000 nM
IC50 (curve of first compound, second compound 0.03 µM): > 10000 nM
IC50 (curve of first compound, second compound 0.0949 µM): > 10000 nM
IC50 (curve of first compound, second compound 0.3 µM): > 10000 nM
IC50 (curve of first compound, second compound 0.949 µM): > 10000 nM
IC50 (curve of first compound, second compound 3 µM): > 10000 nM
SMILES: O=C(c1cc(Cc2n[nH]c(=O)c3ccccc23)ccc1F)N1CCN(C(=O)C2CC2)CC1 + CCN1C(C(=O)NC23CCC(C(=O)O)(CC2)CC3)C(c2cccc(Cl)c2F)C2(C(=O)Nc3cc(Cl)ccc32)C12CCCCC2
viability, T/C (second compound 0.00949 µM, first compound 0.0316 µM): 99.8%
viability, T/C (second compound 0.00949 µM, first compound 0.1 µM): 86%
viability, T/C (second compound 0.00949 µM, first compound 0.316 µM): 85.7%
viability, T/C (second compound 0.00949 µM, first compound 1 µM): 98.2%
viability, T/C (second compound 0.00949 µM, first compound 3.16 µM): 97.8%
viability, T/C (second compound 0.00949 µM, first compound 10 µM): 102%
viability, T/C (second compound 0.03 µM, first compound 0.0316 µM): 93.2%
viability, T/C (second compound 0.03 µM, first compound 0.1 µM): 94%
viability, T/C (second compound 0.03 µM, first compound 0.316 µM): 87.5%
viability, T/C (second compound 0.03 µM, first compound 1 µM): 100%
viability, T/C (second compound 0.03 µM, first compound 3.16 µM): 119%
viability, T/C (second compound 0.03 µM, first compound 10 µM): 102%
viability, T/C (second compound 0.0949 µM, first compound 0.0316 µM): 101%
viability, T/C (second compound 0.0949 µM, first compound 0.1 µM): 91.7%
viability, T/C (second compound 0.0949 µM, first compound 0.316 µM): 94.2%
viability, T/C (second compound 0.0949 µM, first compound 1 µM): 87.6%
viability, T/C (second compound 0.0949 µM, first compound 3.16 µM): 120%
viability, T/C (second compound 0.0949 µM, first compound 10 µM): 115%
viability, T/C (second compound 0.3 µM, first compound 0.0316 µM): 85.2%
viability, T/C (second compound 0.3 µM, first compound 0.1 µM): 85.9%
viability, T/C (second compound 0.3 µM, first compound 0.316 µM): 93.3%
viability, T/C (second compound 0.3 µM, first compound 1 µM): 91.4%
viability, T/C (second compound 0.3 µM, first compound 3.16 µM): 103%
viability, T/C (second compound 0.3 µM, first compound 10 µM): 120%
viability, T/C (second compound 0.949 µM, first compound 0.0316 µM): 99.6%
viability, T/C (second compound 0.949 µM, first compound 0.1 µM): 108%
viability, T/C (second compound 0.949 µM, first compound 0.316 µM): 105%
viability, T/C (second compound 0.949 µM, first compound 1 µM): 95.5%
viability, T/C (second compound 0.949 µM, first compound 3.16 µM): 96.3%
viability, T/C (second compound 0.949 µM, first compound 10 µM): 114%
viability, T/C (second compound 3 µM, first compound 0.0316 µM): 115%
viability, T/C (second compound 3 µM, first compound 0.1 µM): 104%
viability, T/C (second compound 3 µM, first compound 0.316 µM): 114%
viability, T/C (second compound 3 µM, first compound 1 µM): 103%
viability, T/C (second compound 3 µM, first compound 3.16 µM): 125%
viability, T/C (second compound 3 µM, first compound 10 µM): 107%

IC50 (curve of compound): > 10000 nM
SMILES: C=CC(=O)N1CCN(c2nc(=O)n(-c3c(C)ccnc3C(C)C)c3nc(-c4c(O)cccc4F)c(F)cc23)C(C)C1 (centres undefined)
viability, T/C (compound 0.0316 µM): 106% and 97.9% and 94.2%
viability, T/C (compound 0.1 µM): 102% and 109% and 80.9%
viability, T/C (compound 0.316 µM): 84.7% and 95.3% and 101%
viability, T/C (compound 1 µM): 98.6% and 95.9% and 99.3%
viability, T/C (compound 3.16 µM): 86.1% and 102% and 101%
viability, T/C (compound 10 µM): 108% and 99.7% and 96.6%

The remaining lines, values behind:

SMILES: NC1CCC(NC2CC2c2ccccc2)CC1 (centres undefined) + Cc1c(S(C)(=O)=O)c(-c2cc(F)cc(N3CCN(c4ccc(NS(=O)(=O)c5ccc(NC(CCN6CCC(C(=O)OCCCP(=O)(O)O)CC6)CSc6ccccc6)c(S(=O)(=O)C(F)(F)F)c5)cc4)CC3)c2)c(-c2ccc(Cl)cc2)n1C(C)C
IC50 [1]: > 100 nM
IC50 [2]: > 100 nM
IC50 [3]: > 100 nM
IC50 [4]: > 100 nM
IC50 [5]: > 100 nM
IC50 [6]: > 100 nM
viability, T/C (second compound 0.0316 µM, first compound 0.000316 µM): 111%
viability, T/C (second compound 0.0316 µM, first compound 0.001 µM): 109%
viability, T/C [7]: 83.2%
viability, T/C [8]: 101%
viability, T/C [9]: 109%
viability, T/C [10]: 80.5%
viability, T/C (second compound 0.1 µM, first compound 0.000316 µM): 97.5%
viability, T/C (second compound 0.1 µM, first compound 0.001 µM): 102%
viability, T/C [11]: 93.4%
viability, T/C [12]: 105%
viability, T/C [13]: 120%
viability, T/C [14]: 91.8%
viability, T/C (second compound 0.316 µM, first compound 0.000316 µM): 99.2%
viability, T/C (second compound 0.316 µM, first compound 0.001 µM): 97.3%
viability, T/C [15]: 111%
viability, T/C [16]: 100%
viability, T/C [17]: 108%
viability, T/C [18]: 106%
viability, T/C (second compound 1 µM, first compound 0.000316 µM): 118%
viability, T/C (second compound 1 µM, first compound 0.001 µM): 114%
viability, T/C [19]: 103%
viability, T/C [20]: 107%
viability, T/C [21]: 132%
viability, T/C [22]: 106%
viability, T/C (second compound 3.16 µM, first compound 0.000316 µM): 99.3%
viability, T/C (second compound 3.16 µM, first compound 0.001 µM): 101%
viability, T/C [23]: 119%
viability, T/C [24]: 118%
viability, T/C [25]: 123%
viability, T/C [26]: 104%
viability, T/C (second compound 10 µM, first compound 0.000316 µM): 105%
viability, T/C (second compound 10 µM, first compound 0.001 µM): 99.6%
viability, T/C [27]: 113%
viability, T/C [28]: 137%
viability, T/C [29]: 133%
viability, T/C [30]: 118%

SMILES: CNC(C)C(=O)NC1CN(S(=O)(=O)c2cccc(S(=O)(=O)N3CCC4CCC(C(=O)NC(c5ccccc5)c5ccccc5)N4C(=O)C(NC(=O)C(C)NC)C3)c2)CCC2CCC(C(=O)NC(c3ccccc3)c3ccccc3)N2C1=O (centres undefined)
IC50 (curve of compound): > 1000 nM
